Patent US7074420B2, “Cosmetic treatment using a new retinoid” (Avon Products, Inc., priority 2001, dated 2006)

Test: stability of compositions (lasting white color, no yellowing over time)
Format: physicochemical
Settings: particularly in a stick product form
Excerpt: This is evidenced by a lasting white color of the present compositions, without the manifestation of yellowing over time, particularly in a stick product form. The present compositions can also be in other cosmetic product forms, such as, for example, an emulsion, a gel, a lip balm, a lip gloss, a lipstick, a lotion, a mask, an ointment, a patch, a pomade, a solution, a spray, or a towelette.

CC(C=CC1=C(C)CCCC1(C)C)=CC=CC(C)=CCO[Si](C)(C)C [retinoxytrimethylsilane]
stability of compositions compared to prior art: more stable compositions than those of the prior art
